Inconclusive results and toxic doses are left out. No stated cut-off is given here; in the data, active means T/C of 150% or more; inactive means T/C below 125%.
System: L1210 leukemia ip in BDF1 mice, survival T/C
Assay: NCI In Vivo Anticancer Drug Screen. Data for tumor model L1210 Leukemia (intraperitoneal) in B6D2F1 (BDF1) mice
Conditions: endpoint: mean survival time, higher = longer survival
How it was run: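 Transplantable tumor model; survival measured in treated vs vehicle control mice. Value = treated/control.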

[1] = dose: 100.0 mg/kg/injection, schedule: Q01DX009 (ip), vehicle: Klucel (hydroxypropylcellulose) (HPC)
[2] = dose: 100.0 mg/kg/injection, schedule: Q04DX003 (ip), vehicle: Klucel (hydroxypropylcellulose) (HPC)
[3] = dose: 200.0 mg/kg/injection, schedule: Q01DX009 (ip), vehicle: Klucel (hydroxypropylcellulose) (HPC)
[4] = dose: 200.0 mg/kg/injection, schedule: Q04DX003 (ip), vehicle: Klucel (hydroxypropylcellulose) (HPC)
[5] = dose: 400.0 mg/kg/injection, schedule: Q01DX009 (ip), vehicle: Klucel (hydroxypropylcellulose) (HPC)
[6] = dose: 400.0 mg/kg/injection, schedule: Q04DX003 (ip), vehicle: Klucel (hydroxypropylcellulose) (HPC)
[7] = dose: 100.0 mg/kg/injection, schedule: Q01DX009 (ip), vehicle: saline with Tween-80
[8] = dose: 200.0 mg/kg/injection, schedule: Q01DX009 (ip), vehicle: saline with Tween-80
[9] = dose: 400.0 mg/kg/injection, schedule: Q01DX009 (ip), vehicle: saline with Tween-80
[10] = dose: 100.0 mg/kg/injection, schedule: Q01DX009 (ip), vehicle: saline
[11] = dose: 100.0 mg/kg/injection, schedule: Q04DX003 (ip), vehicle: saline
[12] = dose: 200.0 mg/kg/injection, schedule: Q01DX009 (ip), vehicle: saline
[13] = dose: 200.0 mg/kg/injection, schedule: Q04DX003 (ip), vehicle: saline
[14] = dose: 400.0 mg/kg/injection, schedule: Q01DX009 (ip), vehicle: saline
[15] = dose: 400.0 mg/kg/injection, schedule: Q04DX003 (ip), vehicle: saline
[16] = dose: 50.0 mg/kg/injection, schedule: Q04DX003 (ip), vehicle: saline
[17] = dose: 75.0 mg/kg/injection, schedule: Q01DX001 (ip), vehicle: saline
[18] = dose: 150.0 mg/kg/injection, schedule: Q01DX001 (ip), vehicle: saline
[19] = dose: 300.0 mg/kg/injection, schedule: Q01DX001 (ip), vehicle: saline
[20] = dose: 25.0 mg/kg/injection, schedule: Q01DX009 (ip), vehicle: Klucel (hydroxypropylcellulose) (HPC)
[21] = dose: 50.0 mg/kg/injection, schedule: Q01DX009 (ip), vehicle: Klucel (hydroxypropylcellulose) (HPC)
[22] = dose: 100.0 mg/kg/injection, schedule: Q04DX002 (ip), vehicle: saline
[23] = dose: 200.0 mg/kg/injection, schedule: Q04DX002 (ip), vehicle: saline
[24] = dose: 100.0 mg/kg/injection, schedule: Q04DX003 (ip), vehicle: saline with Tween-80
[25] = dose: 200.0 mg/kg/injection, schedule: Q04DX003 (ip), vehicle: saline with Tween-80
[26] = dose: 400.0 mg/kg/injection, schedule: Q04DX003 (ip), vehicle: saline with Tween-80

Measured: T/C

CCOC1=C(Br)C=CN(S(=O)(=O)c2ccc(C)cc2)c2ccc(OC)cc21
inactive: [1] 98 % of control | [2] 95 % of control | [3] 101 % of control | [4] 101 % of control | [5] 100 % of control | [6] 91 % of control

O=c1ccnc[nH]1
inactive: [7] 92 % of control | [8] 93 % of control | [9] 88 % of control

CN(C)C(=O)NNC(=O)N(C)C
inactive: [10] 103 % of control | [11] 94 % of control | [12] 95 % of control | [13] 96 % of control | [14] 95 % of control | [15] 100 % of control

O=C1NC2(CCCCC2)C(=O)N1CCCl
inactive: [16] 101 % of control | [11] 109 % of control | [13] 106 % of control | [15] 101 % of control

CCCCCCCCCCCCCCCCCC(S(=O)(=O)CC)S(=O)(=O)CC
inactive: [2] 93 % of control | [4] 93 % of control | [6] 90 % of control

COC(=O)[C@@]12OC[C@]34[C@H]([C@@H](O)[C@@H]1O)[C@@]1(C)[C@H](O)C(=O)C=C(C)[C@@H]1C[C@H]3OC(=O)C(OC(C)=O)[C@@H]24 (stereo partly specified)
inactive: dose: 125.0 micrograms/kg/injection, schedule: Q01DX009 (ip), vehicle: saline + alcohol 104 % of control | dose: 250.0 micrograms/kg/injection, schedule: Q01DX009 (ip), vehicle: saline + alcohol 105 % of control | dose: 500.0 micrograms/kg/injection, schedule: Q01DX009 (ip), vehicle: saline + alcohol 96 % of control | dose: 1000.0 micrograms/kg/injection, schedule: Q01DX009 (ip), vehicle: saline + alcohol 102 % of control | dose: 2000.0 micrograms/kg/injection, schedule: Q01DX009 (ip), vehicle: saline + alcohol 104 % of control

CCn1cc(C(=O)O)c(=O)c2ccc(C)nc21
inactive: [2] 97 % of control | [4] 96 % of control | [6] 94 % of control

CC(C)N1C(=O)N(C(C)C)C2(CCN(CC3COc4ccccc4O3)CC2)C1=O (stereo unspecified)
inactive: dose: 100.0 mg/kg/injection, schedule: Q01DX001 (ip), vehicle: Klucel (hydroxypropylcellulose) (HPC) 100 % of control | dose: 200.0 mg/kg/injection, schedule: Q01DX001 (ip), vehicle: Klucel (hydroxypropylcellulose) (HPC) 88 % of control | dose: 400.0 mg/kg/injection, schedule: Q01DX001 (ip), vehicle: Klucel (hydroxypropylcellulose) (HPC) 94 % of control

CCOC(=O)C12CCC(CC1)C(C(=O)O)C2C(=O)O (stereo unspecified)
inactive: dose: 75.0 mg/kg/injection, schedule: Q04DX002 (ip), vehicle: saline with Tween-80 99 % of control | dose: 150.0 mg/kg/injection, schedule: Q04DX002 (ip), vehicle: saline with Tween-80 89 % of control | dose: 300.0 mg/kg/injection, schedule: Q04DX002 (ip), vehicle: saline with Tween-80 92 % of control

C=CS(=O)(=O)CCCCCCC
inactive: [17] 96 % of control | [18] 94 % of control | [19] 97 % of control

NC(=O)NC(=O)c1ccccn1
inactive: [17] 106 % of control | [18] 97 % of control | [19] 100 % of control

CC1(C)C(C#N)C(=O)N=C(N)C1C(N)=O (stereo unspecified)
inactive: [20] 94 % of control | [21] 94 % of control | [1] 94 % of control | [2] 92 % of control

N=C(N)C(N)=NCC(Br)CBr (stereo unspecified)
inactive: [22] 93 % of control | [23] 108 % of control

CC(=O)OC12CC3(C)CC(C)(C1)CC(OC(C)=O)(C3)C2
inactive: [22] 113 % of control | [23] 90 % of control | dose: 400.0 mg/kg/injection, schedule: Q04DX002 (ip), vehicle: saline 113 % of control

ClCCOCC1CO1 (stereo unspecified)
inactive: dose: 25.0 mg/kg/injection, schedule: Q04DX003 (ip), vehicle: saline 92 % of control | [16] 88 % of control | [11] 97 % of control

CCCCCCCCCCCC[n+]1cccc(C)c1
inactive: dose: 5.0 mg/kg/injection, schedule: Q01DX001 (ip), vehicle: saline 94 % of control

CC(=O)OCC(CO)(CO)CO
inactive: [10] 98 % of control | [11] 97 % of control | [12] 106 % of control | [13] 105 % of control | [14] 101 % of control | [15] 92 % of control

Nc1ccccc1S(=O)(=O)Nc1ccccc1
inactive: [1] 98 % of control | [2] 92 % of control | [3] 95 % of control | [4] 97 % of control | [5] 87 % of control | [6] 100 % of control

COc1ccc(-c2ccc([N+](=O)[O-])cc2[N+](=O)[O-])cc1
inactive: dose: 100.0 mg/kg/injection, schedule: Q01DX001 (ip), vehicle: carboxymethylcellulose (CMC) 105 % of control | dose: 200.0 mg/kg/injection, schedule: Q01DX001 (ip), vehicle: carboxymethylcellulose (CMC) 110 % of control | dose: 400.0 mg/kg/injection, schedule: Q01DX001 (ip), vehicle: carboxymethylcellulose (CMC) 105 % of control

NS(=O)(=O)c1cc([N+](=O)[O-])ccc1Cl
inactive: [24] 108 % of control | [25] 111 % of control | [26] 95 % of control

O=C(Nc1ccccc1[N+](=O)[O-])OCc1ccc([N+](=O)[O-])cc1
inactive: [24] 92 % of control | [25] 105 % of control | [26] 105 % of control

CC1CC=C(N2CCOCC2)CC1 (stereo unspecified)
inactive: [1] 98 % of control | [3] 97 % of control | [5] 103 % of control

CCOC1=NN(c2ccccc2)C(=O)C1
inactive: [7] 104 % of control | [8] 101 % of control | [9] 97 % of control

C=CCc1ccc(OC(=O)Nc2ccccc2Cl)c(OC)c1
inactive: dose: 100.0 mg/kg/injection, schedule: Q04DX002 (ip), vehicle: Klucel (hydroxypropylcellulose) (HPC) 96 % of control | dose: 200.0 mg/kg/injection, schedule: Q04DX002 (ip), vehicle: Klucel (hydroxypropylcellulose) (HPC) 96 % of control | dose: 400.0 mg/kg/injection, schedule: Q04DX002 (ip), vehicle: Klucel (hydroxypropylcellulose) (HPC) 92 % of control

CCCCC/C(C)=N\Nc1ccccn1
inactive: dose: 12.5 mg/kg/injection, schedule: Q01DX009 (ip), vehicle: Klucel (hydroxypropylcellulose) (HPC) 98 % of control | [20] 100 % of control | dose: 25.0 mg/kg/injection, schedule: Q01DX009 (ip), vehicle: acetone 97 % of control | dose: 50.0 mg/kg/injection, schedule: Q01DX001 (ip), vehicle: acetone 100 % of control | [21] 104 % of control | dose: 50.0 mg/kg/injection, schedule: Q01DX009 (ip), vehicle: acetone 100 % of control | dose: 50.0 mg/kg/injection, schedule: Q04DX003 (ip), vehicle: Klucel (hydroxypropylcellulose) (HPC) 95 % of control | dose: 50.0 mg/kg/injection, schedule: Q04DX003 (ip), vehicle: saline with Tween-80 100 % of control | dose: 100.0 mg/kg/injection, schedule: Q01DX001 (ip), vehicle: acetone 102 % of control | dose: 100.0 mg/kg/injection, schedule: Q01DX009 (ip), vehicle: acetone 88 % of control | [2] 101 % of control | [24] 100 % of control | dose: 200.0 mg/kg/injection, schedule: Q01DX001 (ip), vehicle: acetone 94 % of control | [4] 106 % of control

CN1CCCN(C)CC1
inactive: dose: 25.0 mg/kg/injection, schedule: Q01DX009 (ip), vehicle: saline with Tween-80 104 % of control | dose: 50.0 mg/kg/injection, schedule: Q01DX009 (ip), vehicle: saline with Tween-80 97 % of control | [7] 103 % of control | [24] 95 % of control | [8] 91 % of control | [25] 100 % of control | [26] 102 % of control

CN1CCN(C(=S)Nc2ccc([N+](=O)[O-])cc2)CC1
inactive: [1] 98 % of control | [3] 105 % of control | [5] 96 % of control

N#CC1(C(O)c2ccccc2)C=Cc2ccccc2N1C(=O)c1ccccc1 (stereo unspecified)
inactive: dose: 100.0 mg/kg/injection, schedule: Q01DX001 (ip), vehicle: steriod suspending solution 98 % of control | dose: 400.0 mg/kg/injection, schedule: Q01DX001 (ip), vehicle: steriod suspending solution 95 % of control
